Values of other authors, collected in PMC9001717, “Tyrosine 121 moves revealing a ligandable pocket that couples catalysis to ATP-binding in serine racemase” (Communications Biology, 2022).

System: SR
Parameters: method as in supplementary refs 2, 11-32
Conditions: literature summary; ref supplementary refs 2, 11-32; cited from earlier work

## O=C(O)C(O)C(=O)O [2-hydroxymalonate]
  Inhibition mode: Competitive

## N[C@@H](CSS(=O)(=O)O)C(=O)O [L-cysteine-S-sulfate]
  Inhibition mode: Competitive

## NC(CCS(=O)(=O)O)C(=O)O (centres unmarked) [Homocysteic acid]
  Inhibition mode: Competitive

## O=C(O)C(F)C(=O)O [2-fluoromalonate]
  Inhibition mode: Competitive

## O=C(O)CCC(=O)O [Succinic]
  Inhibition mode: Competitive

## NC(=O)C[C@H](N)C(=O)O [L-asparagine]
  Inhibition mode: Competitive

## O=C(O)C(O)C(O)C(=O)O (centres unmarked) [Tartaric]
  Inhibition mode: Competitive

## O=C(O)/C(O)=C(\O)C(=O)O [Dihydroxyfumaric]
  Inhibition mode: Competitive

## O=C(O)CC(=O)C(=O)O [Oxaloacetic acid]
  Inhibition mode: Product inhibition

## N[C@@H](COS(=O)(=O)O)C(=O)O [L-serine-O-sulfate]
  Inhibition mode: Competitive

## phosphatidylinositol 4,5-bisphosphate [PIP2]
  Inhibition mode: Inhibition (noncompetitive)

## N[C@@H](CCl)C(=O)O [β-chloro-L-alanine]
  Inhibition mode: Competitive

## N[C@@H](CC(=O)O)C(=O)O [L-aspartate]
  Inhibition mode: Competitive

## O=C(O)/C=C\C(=O)O [Maleic]
  Inhibition mode: Competitive

## O=C(O)C(Cl)(Cl)C(=O)O [2,2-dichloromalonate]
  Inhibition mode: Competitive

## O=C(O)C1CC1C(=O)O (centres unmarked) [1,2-cyclopropanedicarboxylic acid]
  Inhibition mode: Competitive

## NC(C(=O)O)C(=O)O [2-aminomalonate]
  Inhibition mode: Competitive

## NC(CO)(CO)C(=O)O [α-(hydroxymethyl)serine]
  Inhibition mode: Substrate-product inhibition

## O=C(O)C[C@H](O)C(=O)O [L-malic]
  Inhibition mode: Competitive

## O=C(O)C(CO)(CO)C(=O)O [2,2-bis(hydroxymethyl)malonate]
  Inhibition mode: Competitive

B1: GRIP: glutamate receptor-interacting protein (protein, UniProt Q9Y3R0 1-1128, looked up)
Glutamate …: MIAVSFKCRCQILRRLTKDESPYTKSASQTKPPDGALAVRRQSIPEEFKGSTVVELMKKEGTTLGLTVSGGIDKDGKPRVSNLRQGGIAARSDQLDVGDYIKAVNGINLAKFRHDEIISLLKNVGERVVLEVEYELPPVSVQGSSVIFRTVEVTLHKEGNTFGFVIRGGAHDDRNKSRPVVITCVRPGGPADREGTIKPGDRLLSVDGIRLLGTTHAEAMSILKQCGQEAALLIEYDVSVMDSVATASGPLLVEVAKTPGASLGVALTTSMCCNKQVIVIDKIKSASIADRCGALHVGDHILSIDGTSMEYCTLAEATQFLANTTDQVKLEILPHHQTRLALKGPDHVKIQRSDRQLTWDSWASNHSSLHTNHHYNTYHPDHCRVPALTFPKAPPPNSPPALVSSSFSPTSMSAYSLSSLNMGTLPRSLYSTSPRGTMMRRRLKKKDFKSSLSLASSTVGLAGQVVHTETTEVVLTADPVTGFGIQLQGSVFATETLSSPPLISYIEADSPAERCGVLQIGDRVMAINGIPTEDSTFEEASQLLRDSSITSKVTLEIEFDVAESVIPSSGTFHVKLPKKHNVELGITISSPSSRKPGDPLVISDIKKGSVAHRTGTLELGDKLLAIDNIRLDNCSMEDAVQILQQCEDLVKLKIRKDEDNSDEQESSGAIIYTVELKRYGGPLGITISGTEEPFDPIIISSLTKGGLAERTGAIHIGDRILAINSSSLKGKPLSEAIHLLQMAGETVTLKIKKQTDAQSASSPKKFPISSHLSDLGDVEEDSSPAQKPGKLSDMYPSTVPSVDSAVDSWDGSAIDTSYGTQGTSFQASGYNFNTYDWRSPKQRGSLSPVTKPRSQTYPDVGLSYEDWDRSTASGFAGAADSAETEQEENFWSQALEDLETCGQSGILRELEEKADRRVSLRNMTLLATIMSGSTMSLNHEAPTPRSQLGRQASFQERSSSRPHYSQTTRSNTLPSDVGRKSVTLRKMKQEIKEIMSPTPVELHKVTLYKDSDMEDFGFSVADGLLEKGVYVKNIRPAGPGDLGGLKPYDRLLQVNHVRTRDFDCCLVVPLIAESGNKLDLVISRNPLASQKSIDQQSLPGDWSEQNSAFFQQPSHGGNLETREPTNTL
  Inhibition mode: Activation; binds to SR

B2: PICK1: protein interacting with C-kinase (protein, UniProt Q9NRD5 1-415, looked up)
PRKCA-binding protein: MFADLDYDIEEDKLGIPTVPGKVTLQKDAQNLIGISIGGGAQYCPCLYIVQVFDNTPAALDGTVAAGDEITGVNGRSIKGKTKVEVAKMIQEVKGEVTIHYNKLQADPKQGMSLDIVLKKVKHRLVENMSSGTADALGLSRAILCNDGLVKRLEELERTAELYKGMTEHTKNLLRAFYELSQTHRAFGDVFSVIGVREPQPAASEAFVKFADAHRSIEKFGIRLLKTIKPMLTDLNTYLNKAIPDTRLTIKKYLDVKFEYLSYCLKVKEMDDEEYSCIALGEPLYRVSTGNYEYRLILRCRQEARARFSQMRKDVLEKMELLDQKHVQDIVFQLQRLVSTMSKYYNDCYAVLRDADVFPIEVDLAHTTLAYGLNQEEFTDGEEEEEEEDTAAGEPSRDTRGAAGPLDKGGSWCDS
  Inhibition mode: Inhibition; binds to SR

B3: Golga3: Golgin subfamily A member 3 (protein, UniProt Q08378 1-1498, looked up)
Golgin subfamily A member 3: MDGASAEQDGLQEDRSHSGPSSLPEAPLKPPGPLVPPDQQDKVQCAEVNRASTEGESPDGPGQGGLCQNGPTPPFPDPPSSLDPTTSPVGPDASPGVAGFHDNLRKSQGTSAEGSVRKEALQSLRLSLPMQETQLCSTDSPLPLEKEEQVRLQARKWLEEQLKQYRVKRQQERSSQPATKTRLFSTLDPELMLNPENLPRASTLAMTKEYSFLRTSVPRGPKVGSLGLPAHPREKKTSKSSKIRSLADYRTEDSNAGNSGGNVPAPDSTKGSLKQNRSSAASVVSEISLSPDTDDRLENTSLAGDSVSEVDGNDSDSSSYSSASTRGTYGILSKTVGTQDTPYMVNGQEIPADTLGQFPSIKDVLQAAAAEHQDQGQEVNGEVRSRRDSICSSVSLESSAAETQEEMLQVLKEKMRLEGQLEALSLEASQALKEKAELQAQLAALSTKLQAQVECSHSSQQRQDSLSSEVDTLKQSCWDLERAMTDLQNMLEAKNASLASSNNDLQVAEEQYQRLMAKVEDMQRSMLSKDNTVHDLRQQMTALQSQLQQVQLERTTLTSKLKASQAEISSLQSVRQWYQQQLALAQEARVRLQGEMAHIQVGQMTQAGLLEHLKLENVSLSQQLTETQHRSMKEKGRIAAQLQGIEADMLDQEAAFMQIQEAKTMVEEDLQRRLEEFEGERERLQRMADSAASLEQQLEQVKLTLLQRDQQLEALQQEHLDLMKQLTLTQEALQSREQSLDALQTHYDELQARLGELQGEAASREDTICLLQNEKIILEAALQAAKSGKEELDRGARRLEEGTEETSETLEKLREELAIKSGQVEHLQQETAALKKQMQKIKEQFLQQKVMVEAYRRDATSKDQLISELKATRKRLDSELKELRQELMQVHGEKRTAEAELSRLHREVAQVRQHMADLEGHLQSAQKERDEMETHLQSLQFDKEQMVAVTEANEALKKQIEELQQEARKAITEQKQKMRRLGSDLTSAQKEMKTKHKAYENAVGILSRRLQEALAAKEAADAELGQLRAQGGSSDSSLALHERIQALEAELQAVSHSKTLLEKELQEVIALTSQELEESREKVLELEDELQESRGFRKKIKRLEESNKKLALELEHEKGKLTGLGQSNAALREHNSILETALAKREADLVQLNLQVQAVLQRKEEEDRQMKHLVQALQASLEKEKEKVNSLKEQVAAAKVEAGHNRRHFKAASLELSEVKKELQAKEHLVQKLQAEADDLQIREGKHSQEIAQFQAELAEARAQLQLLQKQLDEQLSKQPVGNQEMENLKWEVDQKEREIQSLKQQLDLTEQQGRKELEGLQQLLQNVKSELEMAQEDLSMTQKDKFMLQAKVSELKNNMKTLLQQNQQLKLDLRRGAAKTRKEPKGEASSSNPATPIKIPDCPVPASLLEELLRPPPAVSKEPLKNLNSCLQQLKQEMDSLQRQMEEHALTVHESLSSWTPLEPATASPVPPGGHAGPRGDPQRHSQSRASKEGPGE
  Inhibition mode: Increases SR levels
